According to publication PMC10398712 (Journal of medicinal chemistry, 2023):
Like-named read-outs stand apart in the source and are kept apart here. Marks after values point to notes of the source that are not given here. Residues, ends and D or L forms follow the SMILES beside them. *: point of attachment. Cbz = O=C(OCc1ccccc1)*

What was measured:
[1] = system: CRBN; settings: cited from earlier work
[2] = cited from earlier work
[3] = molecular target: CRBN-DDB1 complex (Homo sapiens, UniProt Q96SW2); assay: fluorescence polarization; type: binding; settings: for displacement of fluorescence probe (relative binding): single concentration of 1 μM, tested three times
[4] = ring opening hydrolysis stability in buffer with different pHs; type: physicochemical; settings: for pH=1.0, ring opening hydrolysis, percent compound remaining: pH 1.0, after 24 h; for pH=7.4, ring opening hydrolysis, percent compound remaining: pH 7.4 buffer, after 24 h, 37°C
[5] = system: GSPT1; assay: Western blot of GSPT1 in MV4; type: cell-based, human; settings: MV4;11 cells, 10 and 1 μM, 24 h
[6] = system: IKZF1; assay: Western blot of IKZF1 in MV4; type: cell-based, human; settings: MV4;11 cells, 10 and 1 μM, 24 h
[7] = system: IKZF3; assay: Western blot of IKZF3 in MV4; type: cell-based, human; settings: MV4;11 cells, 10 and 1 μM, 24 h
[8] = molecular target: BRD4 (Homo sapiens, UniProt O60885); assay: Western blot of BRD4; settings: for effect of pretreatment on BRD4 degradation induced by 13: pretreated 1 h, then 13 for 3 h; for degradation of BRD4: 24 h
[9] = system: MV4;11 cells; assay: AlamarBlue cell viability; type: cell-based, human; settings: 72 h
[10] = system: MV4;11 cells; assay: flow cytofluorimetric cell cycle analysis; type: cell-based, human; settings: 48 h
[11] = system: MV4;11 cells; assay: flow cytofluorimetric apoptosis analysis; type: cell-based, human; settings: 48 h
[12] = system: caspase 3 cleavage; assay: Western blot of caspase 3 and cleaved caspase 3 in MV4; settings: MV4;11 cells, 10 nM to 10 μM, 24 h
[13] = in-vivo in humans; cited from earlier work
[14] = in human blood; cited from earlier work

Chain of CRBN-DDB1 complex (Q96SW2 whole entry): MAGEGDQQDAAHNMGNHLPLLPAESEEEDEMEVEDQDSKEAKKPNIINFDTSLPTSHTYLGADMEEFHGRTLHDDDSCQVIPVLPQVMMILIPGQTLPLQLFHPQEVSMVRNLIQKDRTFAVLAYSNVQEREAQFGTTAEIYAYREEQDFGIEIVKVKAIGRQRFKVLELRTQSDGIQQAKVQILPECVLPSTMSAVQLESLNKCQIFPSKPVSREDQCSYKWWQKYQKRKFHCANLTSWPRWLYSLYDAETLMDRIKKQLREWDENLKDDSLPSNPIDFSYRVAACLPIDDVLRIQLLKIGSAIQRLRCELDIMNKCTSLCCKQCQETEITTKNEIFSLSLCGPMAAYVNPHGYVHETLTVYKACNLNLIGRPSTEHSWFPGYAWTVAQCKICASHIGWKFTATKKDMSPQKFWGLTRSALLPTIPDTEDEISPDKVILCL
Chain of CRBN-DDB1 complex (Q16531 whole entry partner): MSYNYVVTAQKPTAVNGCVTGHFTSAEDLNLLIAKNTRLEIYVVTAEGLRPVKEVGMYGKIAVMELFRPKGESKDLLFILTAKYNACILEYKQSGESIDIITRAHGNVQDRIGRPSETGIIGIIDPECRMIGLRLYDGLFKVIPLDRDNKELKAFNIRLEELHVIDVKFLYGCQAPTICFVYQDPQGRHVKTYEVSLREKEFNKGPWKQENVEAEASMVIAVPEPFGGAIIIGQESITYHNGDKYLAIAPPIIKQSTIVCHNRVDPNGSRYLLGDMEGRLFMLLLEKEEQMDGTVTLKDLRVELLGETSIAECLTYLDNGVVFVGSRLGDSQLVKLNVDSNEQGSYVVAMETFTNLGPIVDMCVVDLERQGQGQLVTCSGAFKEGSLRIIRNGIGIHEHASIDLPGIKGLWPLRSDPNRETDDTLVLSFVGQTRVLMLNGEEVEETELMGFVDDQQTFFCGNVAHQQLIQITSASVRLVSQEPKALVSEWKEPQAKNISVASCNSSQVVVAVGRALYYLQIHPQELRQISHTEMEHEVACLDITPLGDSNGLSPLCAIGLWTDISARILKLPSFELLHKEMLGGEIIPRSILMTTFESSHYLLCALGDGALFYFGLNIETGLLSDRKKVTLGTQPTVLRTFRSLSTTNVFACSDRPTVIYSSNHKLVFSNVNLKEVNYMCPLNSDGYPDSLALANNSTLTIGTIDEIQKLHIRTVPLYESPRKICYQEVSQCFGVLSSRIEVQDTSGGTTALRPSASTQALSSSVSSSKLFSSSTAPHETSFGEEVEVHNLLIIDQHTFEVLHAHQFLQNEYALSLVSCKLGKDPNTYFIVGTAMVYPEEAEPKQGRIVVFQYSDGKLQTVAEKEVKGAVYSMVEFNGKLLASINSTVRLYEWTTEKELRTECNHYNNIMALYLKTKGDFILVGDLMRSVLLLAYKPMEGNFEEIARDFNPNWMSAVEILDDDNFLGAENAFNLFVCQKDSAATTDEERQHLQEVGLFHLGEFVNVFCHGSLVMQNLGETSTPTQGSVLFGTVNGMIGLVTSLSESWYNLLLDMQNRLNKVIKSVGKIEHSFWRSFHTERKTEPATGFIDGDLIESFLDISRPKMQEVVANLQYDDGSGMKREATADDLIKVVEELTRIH

Compound: O=C1CC[C@H](N2C(=O)c3ccccc3C2=O)C(=O)N1 (single isomer, unassigned) [(S)-enantiomeric thalidomide]
- binding affinity to CRBN relative to the (R)-enantiomer [1]: at least 10 fold

Compound: [2H]C1(N2C(=O)c3ccccc3C2=O)CCC(=O)NC1=O (stereo not drawn) [Compound 1D]
- racemization relative to thalidomide [2]: about five times slower than thalidomide

Compound: O=C1CCN(c2ccccc2O)C(=O)N1 [Compound 3A, 1-(2-hydroxyphenyl)dihydropyrimidine-2,4(1H,3H)-dione]
- displacement of fluorescence probe (relative binding) [3]: almost completely lost the binding

Compound: Cc1ccccc1N1CCC(=O)NC1=O [Compound 3B, 1-(o-tolyl)dihydropyrimidine-2,4(1H,3H)-dione]
- increase of affinity by ortho-Me relative to parent PDHU 2 ([3]; FP assay): about 2.5 times

Compound: COc1ccccc1N1CCC(=O)NC1=O [Compound 3C, 1-(2-methoxyphenyl)dihydropyrimidine-2,4(1H,3H)-dione]
- displacement of fluorescence probe (relative binding) [3]: decreased the binding

Compound: Cc1c(C#CCNC(=O)OC(C)(C)C)cccc1N1CCC(=O)NC1=O [Compound 6F, tert-butyl (3-(3-(2,4-dioxotetrahydropyrimidin-1(2H)-yl)-2-methylphenyl)prop-2-yn-1-yl)carbamate]
- pH=1.0, ring opening hydrolysis, percent compound remaining [4]: >99^[g] %
- pH=7.4, ring opening hydrolysis, percent compound remaining [4]: >99%
- degradation of GSPT1 [5]: do not induce the degradation
- degradation of IKZF1 [6]: do not induce the degradation
- degradation of IKZF3 [7]: do not induce the degradation

Compound: Cc1c(OCC(=O)N2CCCCC2)cccc1N1CCC(=O)NC1=O [Compound 9, 1-(2-methyl-3-(2-oxo-2-(piperidin-1-yl)ethoxy)phenyl)dihydropyrimidine-2,4(1H,3H)-dione]
- pH=1.0, ring opening hydrolysis, percent compound remaining [4]: >99%
- pH=7.4, ring opening hydrolysis, percent compound remaining [4]: >99%
- degradation of GSPT1 [5]: do not induce the degradation
- effect of pretreatment on BRD4 degradation induced by 13 ([8]; MV4;11 cells): abolished the BRD4 degradation induced by 13
- anti-proliferation activity ([9]; at up to 100 μM): did not show any anti-proliferation activity
- degradation of IKZF1 [6]: do not induce the degradation
- degradation of IKZF3 [7]: do not induce the degradation

Compound: CCNC(=O)COc1cccc(N2CCC(=O)NC2=O)c1C [Compound 10, 2-(3-(2,4-dioxotetrahydropyrimidin-1(2H)-yl)-2-methylphenoxy)-N-ethylacetamide]
- pH=1.0, ring opening hydrolysis, percent compound remaining [4]: >99%
- pH=7.4, ring opening hydrolysis, percent compound remaining [4]: >99%
- degradation of GSPT1 [5]: do not induce the degradation
- degradation of IKZF1 [6]: do not induce the degradation
- degradation of IKZF3 [7]: do not induce the degradation

Compound: CC(=O)NCCC#Cc1cccc(N2CCC(=O)NC2=O)c1C [Compound 11, N-(4-(3-(2,4-dioxotetrahydropyrimidin-1(2H)-yl)-2-methylphenyl)but-3-yn-1-yl)acetamide]
- pH=1.0, ring opening hydrolysis, percent compound remaining [4]: >99%
- pH=7.4, ring opening hydrolysis, percent compound remaining [4]: >99%
- degradation of GSPT1 [5]: do not induce the degradation
- degradation of IKZF1 [6]: do not induce the degradation
- degradation of IKZF3 [7]: do not induce the degradation

Compound: Cc1sc2c(c1C)C(c1ccc(Cl)cc1)=N[C@@H](CC(=O)NCCCC#Cc1cccc(N3CCC(=O)NC3=O)c1C)c1nnc(C)n1-2 [Compound 12C, (S)-2-(4-(4-chlorophenyl)-2,3,9-trimethyl-6H-thieno[3,2-f][1,2,4]triazolo[4,3-a][1,4]diazepin-6-yl)-N-(5-(3-(2,4-dioxotetrahydropyrimidin-1(2H)-yl)-2-methylphenyl)pent-4-yn-1-yl)acetamide]
- degradation of BRD4 ([8]; in MV4;11 and LNCAP, 1.0 and 0.1 μM): showed obviously BRD4 degradation activity

Compound: Cc1sc2c(c1C)C(c1ccc(Cl)cc1)=N[C@@H](CC(=O)NC1CCN(C(=O)COc3cccc(N4CCC(=O)NC4=O)c3C)CC1)c1nnc(C)n1-2 [Compound 13, (S)-2-(4-(4-chlorophenyl)-2,3,9-trimethyl-6H-thieno[3,2-f][1,2,4]triazolo[4,3-a][1,4]diazepin-6-yl)-N-(1-(2-(3-(2,4-dioxotetrahydropyrimidin-1(2H)-yl)-2-methylphenoxy)acetyl)piperidin-4-yl)acetamide]
- cell cycle effect [10]: induce G1 phase arrest, decrease the cell population in S phase
- cell apoptosis [11]: induced cell apoptosis in a dose-dependent manner
- caspase 3 cleavage [12]: successful in inducing caspase 3 cleavage

Compound: Cc1sc2c(c1C)C(c1ccc(Cl)cc1)=N[C@@H](CC(=O)NC1CCN(C(=O)COc3cccc(N4CCC(=O)N(C)C4=O)c3C)CC1)c1nnc(C)n1-2 [Compound 13NT, (S)-2-(4-(4-chlorophenyl)-2,3,9-trimethyl-6H-thieno[3,2-f][1,2,4]triazolo[4,3-a][1,4]diazepin-6-yl)-N-(1-(2-(2-methyl-3-(3-methyl-2,4-dioxotetrahydropyrimidin-1(2H)-yl)phenoxy)acetyl)piperidin-4-yl)acetamide]
- degradation of BRD4 ([8]; MV4;11 cells, several different concentrations): no degradation activity of BRD4 was observed

Compound: Cc1sc2c(c1C)C(c1ccc(Cl)cc1)=N[C@@H](CC(=O)OC(C)(C)C)c1nnc(C)n1-2 [JQ1, reference compound]
- anti-proliferation activity [9]: weaker anti-proliferation activity than 13, but higher activity than compound 13NT

Compound: Nc1cccc2c1CN(C1CCC(=O)NC1=O)C2=O (stereo not drawn) [Lenalidomide, lenalidomide, reference compound]
- pH=1.0, ring opening hydrolysis, percent compound remaining [4]: >99%
- pH=8.8, ring opening hydrolysis, percent compound remaining ([4]; pH 8.8, after 24 h): 0%

Compound: CC(C)C[C@@H](C=O)NC(=O)[C@H](CC(C)C)NC(=O)[C@H](CC(C)C)NC(=O)OCc1ccccc1 [MG132, reference compound] (Cbz-Leu-Leu-Leu-aldehyde)
- effect of pretreatment on BRD4 degradation induced by 13 ([8]; MV4;11 cells): abolished the BRD4 degradation induced by 13

Compound: NS(=O)(=O)OC[C@@H]1C[C@@H](n2ccc3c(N[C@H]4CCc5ccccc54)ncnc32)C[C@@H]1O [MLN4924, reference compound]
- effect of pretreatment on BRD4 degradation induced by 13 ([8]; MV4;11 cells): abolished the BRD4 degradation induced by 13

Compound: O=C1CCC(N2C(=O)c3ccccc3C2=O)C(=O)N1 (stereo not drawn) [thalidomide]
- racemization half-life [13]: ~ 5.0 h
- racemization half-life [14]: ~ 2.0 h
